Results published in paper PMC10195144, “Purification and characterization of a cold-active myrosinase from marine Pseudomonas oleovorans SuMy07” (Acta Biochimica et Biophysica Sinica, 2023).

System: T1, myrosinase of SuMy07
T1 construct: gene beta-thioglucoside glucohydrolase; native enzyme purified from the marine isolate (ultrafiltration, ammonium sulfate, Superdex 200); two subunits of 65 kDa
Experiment: double-reciprocal plot of sinigrin hydrolysis
Assay type: biochemical, Pseudomonas oleovorans
Details: pH 7.0, 25 °C

- Km: 1400 µM
Structure (SMILES): C=CC/C(=N/OS(=O)(=O)O)S[C@@H]1O[C@H](CO)[C@@H](O)[C@H](O)[C@H]1O [sinigrin hydrate]
